Tested on: partial thickness wounds
Test: Topically applied bacitracin zinc 3% to 9%, healing of partial thickness wounds (Example III)
Format: in vivo, white Yorkshire pigs
Description: To test the effect of bacitracin zinc on epidermal resurfacing, approximately 60 rectangular wounds measuring 7 mm wide, 10 mm long, and 0.5 mm deep were made in each of eighteen white Yorkshire pigs in the paravertebral and thoracic areas with a Castroviejo keratome. The electrokeratome was fitted with a razor blade modified so that the cutting edge was reduced to 7 mm. The wounds were separated from one another by at least 15 mm of normal skin. The bacitracin zinc was applied in impregnated foam shortly (within 5 minutes) after wounding on day 0 and once daily thereafter for 7 days. In order to rule out the possibility that wounds made in different anatomical regions heal at different rates the regions used for each treatment group varied for each animal. Two days after wounding and each day thereafter some of the wounds with surrounding normal skin were excised from each treatment group. The excisions were made with a Castroviejo keratome fitted with a 22 mm blade, set to cut at a depth of 0.7 mm. After incubating the specimens in 2N sodium bromide at 37° C. for three hours, the epidermis was separated from the dermis and the epidermal sheet (22 sq mm) was assessed for re-epithelialization as previously described. Briefly, this method is a macroscopic examination of the separated epidermis for defects. Defects are visualized as holes in the separated epidermal sheet or as a lack of epidermal continuum in the area that contain the wound. The wound is considered re-epithelialized if there are no defects in the epidermis and not re-epithelialized if there are one or more defects. To more accurately assess the effective range of bacitracin concentrations,bacitracin zinc containing ointments were prepared with concentrations ranging from 3% to 9%. The methodology employed was substantially the same as in Example I.

## bacitracin zinc
3.0% bacitracin zinc, day 2 after wounding
  % of wounds healed: 0%
3.0% bacitracin zinc, day 3 after wounding
  % of wounds healed: 0%
3.0% bacitracin zinc, day 4 after wounding
  % of wounds healed: 33%
3.0% bacitracin zinc, day 5 after wounding
  % of wounds healed: 55%
3.0% bacitracin zinc, day 6 after wounding
  % of wounds healed: 90%
3.0% bacitracin zinc, day 7 after wounding
  % of wounds healed: 100%
4.0% bacitracin zinc, day 2 after wounding
  % of wounds healed: 0%
4.0% bacitracin zinc, day 3 after wounding
  % of wounds healed: 5%
4.0% bacitracin zinc, day 4 after wounding
  % of wounds healed: 45%
4.0% bacitracin zinc, day 5 after wounding
  % of wounds healed: 60%
4.0% bacitracin zinc, day 6 after wounding
  % of wounds healed: 96%
4.0% bacitracin zinc, day 7 after wounding
  % of wounds healed: 100%
5.0% bacitracin zinc, day 2 after wounding
  % of wounds healed: 0%
5.0% bacitracin zinc, day 3 after wounding
  % of wounds healed: 9%
5.0% bacitracin zinc, day 4 after wounding
  % of wounds healed: 48%
5.0% bacitracin zinc, day 5 after wounding
  % of wounds healed: 71%
5.0% bacitracin zinc, day 6 after wounding
  % of wounds healed: 95%
5.0% bacitracin zinc, day 7 after wounding
  % of wounds healed: 100%
5.5% bacitracin zinc, day 2 after wounding
  % of wounds healed: 0%
5.5% bacitracin zinc, day 3 after wounding
  % of wounds healed: 15%
5.5% bacitracin zinc, day 4 after wounding
  % of wounds healed: 55%
5.5% bacitracin zinc, day 5 after wounding
  % of wounds healed: 75%
5.5% bacitracin zinc, day 6 after wounding
  % of wounds healed: 98%
5.5% bacitracin zinc, day 7 after wounding
  % of wounds healed: 100%
6.0% bacitracin zinc, day 2 after wounding
  % of wounds healed: 0%
6.0% bacitracin zinc, day 3 after wounding
  % of wounds healed: 20%
6.0% bacitracin zinc, day 4 after wounding
  % of wounds healed: 59%
6.0% bacitracin zinc, day 5 after wounding
  % of wounds healed: 78%
6.0% bacitracin zinc, day 6 after wounding
  % of wounds healed: 98%
6.0% bacitracin zinc, day 7 after wounding
  % of wounds healed: 100%
6.5% bacitracin zinc, day 2 after wounding
  % of wounds healed: 0%
6.5% bacitracin zinc, day 3 after wounding
  % of wounds healed: 33%
6.5% bacitracin zinc, day 4 after wounding
  % of wounds healed: 65%
6.5% bacitracin zinc, day 5 after wounding
  % of wounds healed: 88%
6.5% bacitracin zinc, day 6 after wounding
  % of wounds healed: 100%
6.5% bacitracin zinc, day 7 after wounding
  % of wounds healed: 100%
7.0% bacitracin zinc, day 2 after wounding
  % of wounds healed: 0%
7.0% bacitracin zinc, day 3 after wounding
  % of wounds healed: 40%
7.0% bacitracin zinc, day 4 after wounding
  % of wounds healed: 70%
7.0% bacitracin zinc, day 5 after wounding
  % of wounds healed: 96%
7.0% bacitracin zinc, day 6 after wounding
  % of wounds healed: 100%
7.0% bacitracin zinc, day 7 after wounding
  % of wounds healed: 100%
7.5% bacitracin zinc, day 2 after wounding
  % of wounds healed: 0%
7.5% bacitracin zinc, day 3 after wounding
  % of wounds healed: 38%
7.5% bacitracin zinc, day 4 after wounding
  % of wounds healed: 68%
7.5% bacitracin zinc, day 5 after wounding
  % of wounds healed: 92%
7.5% bacitracin zinc, day 6 after wounding
  % of wounds healed: 98%
7.5% bacitracin zinc, day 7 after wounding
  % of wounds healed: 100%
8.0% bacitracin zinc, day 2 after wounding
  % of wounds healed: 0%
8.0% bacitracin zinc, day 3 after wounding
  % of wounds healed: 12%
8.0% bacitracin zinc, day 4 after wounding
  % of wounds healed: 59%
8.0% bacitracin zinc, day 5 after wounding
  % of wounds healed: 75%
8.0% bacitracin zinc, day 6 after wounding
  % of wounds healed: 90%
8.0% bacitracin zinc, day 7 after wounding
  % of wounds healed: 100%
9.0% bacitracin zinc, day 2 after wounding
  % of wounds healed: 0%
9.0% bacitracin zinc, day 3 after wounding
  % of wounds healed: 4%
9.0% bacitracin zinc, day 4 after wounding
  % of wounds healed: 33%
9.0% bacitracin zinc, day 5 after wounding
  % of wounds healed: 66%
9.0% bacitracin zinc, day 6 after wounding
  % of wounds healed: 90%
9.0% bacitracin zinc, day 7 after wounding
  % of wounds healed: 100%
Applied in an ointment base at concentrations of about 5% to 8%
  promoting epidermal resurfacing: effective agent for promoting epidermal resurfacing
Concentration of 4%
  enhancement of healing: some enhancement of healing is observed
Higher concentrations, particularly in the range of 6.5%-7.5%
  enhancement of healing: Preferred healing is observed

From patent US5061689A, “Zinc bacitracin containing wound dressing” (Bioderm, Inc., priority 1986, dated 1991)
